Experimental data reported in paper PMC4319983, “PE859, a Novel Tau Aggregation Inhibitor, Reduces Aggregated Tau and Prevents Onset and Progression of Neural Dysfunction In Vivo” (PLoS ONE, 2015).

Target: T1, tau (microtubule-associated protein tau) (Homo sapiens, UniProt P10636)
T1 construct: gene MAPT
Assay: ThT fluorescence assay of heparin-induced aggregation of recombinant tau; 3RMBD result confirmed by TEM and CD
Format: biochemical
From the text: ThT fluorescence assay of heparin-induced aggregation of recombinant tau; 3RMBD result confirmed by TEM and CD on tau (microtubule-associated protein tau) | PE859 inhibited the heparin-induced aggregation of both 3RMBD and full length tau in a concentration-dependent manner.

T1 sequence (P10636 150-247 isoform P10636-3): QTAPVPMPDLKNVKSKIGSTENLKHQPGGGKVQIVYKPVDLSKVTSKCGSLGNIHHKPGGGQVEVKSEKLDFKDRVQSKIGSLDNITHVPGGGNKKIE

IC50: 810 nM
SMILES: COc1cc(OCc2ccccn2)ccc1/C=C/c1cc(/C=C/c2ccc3cc[nH]c3c2)[nH]n1 [PE859, 3-[(1E)-2-(1H-indol-6-yl)ethenyl]-5-[(1E)-2-[2-methoxy-4-(2-pyridylmethoxy)phenyl]ethenyl]-1H-pyrazole]
